In series [1] the target is T1, human GLP-1 receptor (Homo sapiens, UniProt P43220).
T1 construct: host or cells: CHO-K1
Description: cAMP activity test (cAMP dynamic HTRF kit) in CHO-K1/GLP-1 receptor-expressing cells. Type of series: cell-based. Particulars: cAMP activity, CHO-K1/GLP-1 receptor-expressing cells; read-out: EC50. The method in brief: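 Cells in HBSS with 0.1% BSA, 0.5 mM IBMX and 5 mM HEPES, then lysed; cAMP-d2 and anti-cAMP cryptate added for 3 h. HTRF read-out, where FRET signal is inversely proportional to intracellular cAMP.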
In general terms: TR-FRET usually uses a lanthanide donor and a delayed reading to cut background.

Series [2] has as its target T2, hERG (Homo sapiens, UniProt Q12809).
T2 construct: purchased Invitrogen PV5365
Description: hERG inhibition test (Predictor hERG Fluorescence Polarization assay kit). Type of series: binding. Particulars: probe kit Tracer (fluorescent hERG ligand), hERG % inhibition at 10 uM, relative to E-4031 and solvent control. The method in brief: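 Competitive fluorescence-polarization binding of fluorescent tracer to hERG membrane preparation, 2.5 h at room temperature, mP read at 531/579 nm. % inhibition at 10 uM test compound, scaled between solvent control (0%) and E-4031 (100%).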

T1 sequence (P43220 24-463): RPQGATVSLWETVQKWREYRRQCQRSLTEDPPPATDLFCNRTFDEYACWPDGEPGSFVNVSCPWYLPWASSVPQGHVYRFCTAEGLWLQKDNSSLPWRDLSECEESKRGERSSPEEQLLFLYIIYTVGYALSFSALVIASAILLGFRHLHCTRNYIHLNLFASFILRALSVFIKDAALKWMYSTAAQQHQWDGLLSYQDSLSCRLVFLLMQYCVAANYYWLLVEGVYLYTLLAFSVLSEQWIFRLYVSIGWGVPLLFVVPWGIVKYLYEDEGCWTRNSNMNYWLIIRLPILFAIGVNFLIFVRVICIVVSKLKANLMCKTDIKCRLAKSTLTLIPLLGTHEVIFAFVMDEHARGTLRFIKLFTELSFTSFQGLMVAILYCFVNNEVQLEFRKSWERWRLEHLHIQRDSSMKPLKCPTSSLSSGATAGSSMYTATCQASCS
T2 sequence (Q12809 whole entry): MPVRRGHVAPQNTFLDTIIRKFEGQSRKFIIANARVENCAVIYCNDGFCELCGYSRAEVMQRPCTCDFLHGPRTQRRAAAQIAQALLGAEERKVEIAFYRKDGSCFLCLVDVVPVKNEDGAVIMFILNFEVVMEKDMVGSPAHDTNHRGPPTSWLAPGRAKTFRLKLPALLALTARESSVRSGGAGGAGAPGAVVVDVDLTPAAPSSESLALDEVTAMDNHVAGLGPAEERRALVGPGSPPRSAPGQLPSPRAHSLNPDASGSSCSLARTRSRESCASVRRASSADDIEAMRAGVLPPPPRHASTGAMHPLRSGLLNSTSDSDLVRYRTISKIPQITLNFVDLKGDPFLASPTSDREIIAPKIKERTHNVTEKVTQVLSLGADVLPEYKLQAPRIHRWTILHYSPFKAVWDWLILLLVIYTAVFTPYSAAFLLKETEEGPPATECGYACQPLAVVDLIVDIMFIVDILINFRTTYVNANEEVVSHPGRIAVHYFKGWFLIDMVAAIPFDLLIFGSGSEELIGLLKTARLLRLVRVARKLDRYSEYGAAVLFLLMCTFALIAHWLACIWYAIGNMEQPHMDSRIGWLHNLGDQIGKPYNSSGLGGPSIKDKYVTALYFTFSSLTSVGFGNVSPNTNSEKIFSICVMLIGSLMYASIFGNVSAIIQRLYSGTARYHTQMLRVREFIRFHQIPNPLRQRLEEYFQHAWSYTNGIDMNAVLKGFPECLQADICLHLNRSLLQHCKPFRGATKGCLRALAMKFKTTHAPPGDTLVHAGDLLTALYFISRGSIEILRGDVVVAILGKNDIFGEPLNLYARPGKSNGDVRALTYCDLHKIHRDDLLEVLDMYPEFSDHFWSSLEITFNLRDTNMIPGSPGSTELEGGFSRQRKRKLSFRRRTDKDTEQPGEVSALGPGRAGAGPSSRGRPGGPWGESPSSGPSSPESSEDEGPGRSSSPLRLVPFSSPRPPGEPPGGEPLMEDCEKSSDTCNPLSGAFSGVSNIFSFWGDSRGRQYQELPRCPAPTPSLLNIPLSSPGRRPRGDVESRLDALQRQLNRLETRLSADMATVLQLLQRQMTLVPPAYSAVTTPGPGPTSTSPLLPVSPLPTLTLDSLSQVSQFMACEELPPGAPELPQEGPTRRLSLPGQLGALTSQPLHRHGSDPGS

Regarding `N#Cc1ccc(COc2cccc(-c3ccn(Cc4nc5ccc(C(=O)O)cc5n4CC4CCCO4)c(=O)c3)c2)c(F)c1` (stereo not drawn) [Example 107, 2-((4-(3-(4-cyano-2-fluorobenzyloxy)phenyl)-2-oxopyridin-1(2H)-yl)methyl)-1-((tetrahydrofuran-2-yl)methyl)-1H-benzo[d]imidazole-6-carboxylic acid], the EC50 (in general, the midpoint of the concentration-response curve) in series [1] is 380 nM. Further, the inhibition – broadly, the change of the read-out against control, counted positive when it falls – at 2.5 h, 10 µM in series [2] was 2.7%.

Consider `O=C(O)c1ccc2nc(Cc3ccc(-c4cccc(OCc5ccc(Cl)cc5F)c4)c(F)c3)n(Cc3cnco3)c2c1` [Example 33, 2-((3′-(4-chloro-2-fluorobenzyloxy)-2-fluorobiphenyl-4-yl)methyl)-1-(oxazol-5-ylmethyl)-1H-benzo[d]imidazole-6-carboxylic acid], for which, in series [1], the EC50 was 60 nM. In addition, the inhibition at 2.5 h, 10 µM in series [2] was -9.08%.

With `N#Cc1ccc(COc2cccc(-c3ccc(Cc4nc5ccc(C(=O)O)cc5n4CC4CCCO4)c(F)c3)c2)c(F)c1` (stereo not drawn) [Example 14, 2-((3′-(4-cyano-2-fluorobenzyloxy)-3-fluorobiphenyl-4-yl)methyl)-1-((tetrahydrofuran-2-yl)methyl)-1H-benzo[d]imidazole-6-carboxylic acid], in series [1], the concentration giving a half-maximal response (EC50) was 93 nM. In series [2], the inhibition at 2.5 h, 10 µM was -6.08%.

In the case of `O=C(O)c1ccc2nc(Cc3ccc(-c4cccc(OCc5ccc(Cl)c(F)c5)n4)c(F)c3)n(CC3CCCO3)c2c1` (stereo not drawn) [Example 99, 2-(4-(6-(4-chloro-3-fluorobenzyloxy)pyridin-2-yl)-3-fluorobenzyl)-1-((tetrahydrofuran-2-yl)methyl)-1H-benzo[d]imidazole-6-carboxylic acid], in series [1], the EC50 is 70 nM. The inhibition at 2.5 h, 10 µM in series [2] is -0.33%.

For the molecule `O=C(O)c1ccc2nc(Cc3ccc(-c4cccc(OCc5nc6ccccc6s5)n4)c(F)c3)n(C[C@@H]3CCO3)c2c1` [Example 132, (S)-2-(4-(6-(benzo[d]thiazol-2-ylmethoxy)pyridin-2-yl)-3-fluorobenzyl)-1-(oxetan-2-ylmethyl)-1H-benzo[d]imidazole-6-carboxylic acid], in series [1], the EC50 was found to be 460 nM. Further, the inhibition at 2.5 h, 10 µM in series [2] is -7.11%.

As for `O=C(O)c1ccc2nc(Cc3ccc(-c4cccc(OCc5ccc(Br)cc5F)n4)cc3F)n(CC3CCCO3)c2c1` (stereo not drawn) [Example 89, 2-(4-(6-(4-bromo-2-fluorobenzyloxy)pyridin-2-yl)-2-fluorobenzyl)-1-((tetrahydrofuran-2-yl)methyl)-1H-benzo[d]imidazole-6-carboxylic acid], the EC50 in series [1] is 11 nM. The inhibition at 2.5 h, 10 µM in series [2] is 22.1%.

Consider `COc1cc(-c2cccc(OCc3ccc(Cl)cc3F)n2)ccc1Cc1nc2ccc(C(=O)O)cc2n1CC1CCCO1` (stereo not drawn) [Example 63, 2-(4-(6-(4-chloro-2-fluorobenzyloxy)pyridin-2-yl)-2-methoxybenzyl)-1-((tetrahydrofuran-2-yl)methyl)-1H-benzo[d]imidazole-6-carboxylic acid], for which, in series [1], the EC50 came to 160 nM. Besides, in series [2], the inhibition at 2.5 h, 10 µM is -19.6%.

For the molecule `Cc1cc(Cc2nc3ccc(C(=O)O)cc3n2Cc2ccco2)ccc1-c1cccc(OCc2ccc(C#N)cc2F)n1` [Example 30, 2-(4-(6-(4-cyano-2-fluorobenzyloxy)pyridin-2-yl)-3-methylbenzyl)-1-(furan-2-ylmethyl)-1H-benzo[d]imidazole-6-carboxylic acid], the EC50 in series [1] is 460 nM. The inhibition at 2.5 h, 10 µM in series [2] is 0.33%.

In the case of `Cc1cc(-c2cccc(OCc3ccc(Cl)cc3F)n2)ccc1Cc1nc2ccc(C(=O)O)cc2n1C[C@@H]1CCO1` [Example 134, (S)-2-(4-(6-((4-chloro-2-fluorobenzyl)oxy)pyridin-2-yl)-2-methylbenzyl)-1-(oxetan-2-ylmethyl)-1H-benzo[d]imidazole-6-carboxylic acid], the EC50 in series [1] came out at 190 nM. The inhibition at 2.5 h, 10 µM in series [2] was 28.3%.
